# US8546579B2, “Bicycloheteroaryl compounds as P2X7 modulators and uses thereof” (Evotec (US) Inc., priority 2006, dated 2013)
# Molecular target: T1, P2X7 receptor (Homo sapiens, UniProt Q99572)
# T1 construct: host or cells: THP-1 cells differentiated with LPS and IFN-γ
# T1 sequence (Q99572 1-595): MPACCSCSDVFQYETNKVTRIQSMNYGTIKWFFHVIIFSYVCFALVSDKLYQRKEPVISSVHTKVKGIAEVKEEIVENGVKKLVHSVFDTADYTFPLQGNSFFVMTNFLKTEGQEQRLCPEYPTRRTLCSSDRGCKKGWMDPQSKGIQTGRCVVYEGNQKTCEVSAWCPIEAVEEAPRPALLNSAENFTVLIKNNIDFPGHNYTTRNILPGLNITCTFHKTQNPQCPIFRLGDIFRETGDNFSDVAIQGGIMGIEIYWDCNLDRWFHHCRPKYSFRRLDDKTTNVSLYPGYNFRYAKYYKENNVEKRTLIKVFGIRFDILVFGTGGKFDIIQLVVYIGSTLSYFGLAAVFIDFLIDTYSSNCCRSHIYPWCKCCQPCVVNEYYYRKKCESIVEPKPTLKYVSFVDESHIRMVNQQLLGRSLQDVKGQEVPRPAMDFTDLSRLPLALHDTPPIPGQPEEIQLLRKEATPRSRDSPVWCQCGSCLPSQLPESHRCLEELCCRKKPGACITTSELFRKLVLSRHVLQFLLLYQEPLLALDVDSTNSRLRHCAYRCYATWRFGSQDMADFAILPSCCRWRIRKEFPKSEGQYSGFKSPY
# Experiment: IL-1β release assay in differentiated THP-1 cells stimulated with BzATP (Example 9)
# Format: cell-based
# Set-up: inhibition: dose or concentration left out as unconfirmed
# Conditions: 0.1 μM compound; differentiated THP-1 cells, BzATP 250 uM; "*" class symbols; read-out: IL-1β % Inhib. ("*" symbols: at 0.1 μM)
# Summary of the method: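 THP-1 cells differentiated 16 h with LPS and IFN-γ (100 ng/mL each), re-primed 2 h with LPS, then compound-pretreated 30 min before 250 uM BzATP for 45 min. Supernatant IL-1β quantified by ELISA; background-adjusted percent inhibition fitted to four-parameter logistic for IC50.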
row,inhibition at 0.1 µM [%],Structure (SMILES)
1,0 to 25,O=C(CCc1cccc(Cl)c1)Nc1cccc2c(=O)n(Cc3ccc(OC(F)(F)F)cc3)ccc12 [Compound 1610]
2,0 to 25,O=C(CCc1ccc(Cl)cc1)Nc1cccc2c(=O)n(Cc3ccc(OC(F)(F)F)cc3)ccc12 [Compound 1603]

# Same assay, conditions: 0.1 μM compound; differentiated THP-1 cells, BzATP 250 uM; '*' class symbols; read-out: IL-1β % Inhib. (asterisk classes, 0.1 μM)
row,inhibition at 0.1 µM [%],Structure (SMILES)
1,0 to 25,COc1cc(OC)cc(C(=O)Nc2cccc3c(=O)n(CCN4CCOCC4)ccc23)c1 [Compound 1196]

# Same assay, conditions: 0.1 μM compound; differentiated THP-1 cells, BzATP 250 uM; symbols * to ****; read-out: IL-1β % Inhib. (asterisk symbols: at 0.1 μM)
row,inhibition at 0.1 µM [%],Structure (SMILES)
1,0 to 25,COc1cc(OC)cc(C(=O)Nc2cccc3c(=O)n(C)ccc23)c1 [Compound 1290]

# Same assay, conditions: 0.3 μM compound; differentiated THP-1 cells, BzATP 250 uM; "+" class symbols; read-out: IL-1β % Inhib. @ 0.3 μM
row,inhibition at 0.3 µM [%],Structure (SMILES)
1,0 to 25,CN(C)CCn1ccc2c(NC(=O)Cc3ccc(Cl)cc3C(F)(F)F)cccc2c1=O [Compound 1611]
2,≥ 76,CC(c1ccccn1)n1ccc2c(NC(=O)Cc3ccc(C(F)(F)F)c(F)c3)cccc2c1=O (stereo not shown) [Compound 1635]

# Same assay, conditions: 0.3 μM compound; differentiated THP-1 cells, BzATP 250 uM; '+' class symbols; read-out: IL-1β % Inhib. @ 0.3 μM
row,inhibition at 0.3 µM [%],Structure (SMILES)
1,0 to 25,O=C(Nc1cccc2c(=O)n(CC3CCOCC3)ccc12)c1cccc2c1OCCO2 [Compound 1117]
2,0 to 25,CN(C)CCn1ccc2c(NC(=O)CCCc3ccccc3)cccc2c1=O [Compound 1161]
3,0 to 25,CN(C)CCn1ccc2c(NC(=O)[C@@]34C[C@@H]5C[C@@H](C[C@@H]3C5)C4)cccc2c1=O [Compound 1168]
4,0 to 25,Cc1cccc(CCC(=O)Nc2cccc3c(=O)n(CC4CCOCC4)ccc23)c1 [Compound 1130]
5,0 to 25,Cc1ccc(C)c(CC(=O)Nc2cccc3c(=O)n(CC(C)(C)C)ccc23)c1 [Compound 1051]
6,0 to 25,O=C(CCc1cccc(Cl)c1)Nc1cccc2c(=O)n(CC3CCOCC3)ccc12 [Compound 1135]
7,0 to 25,CN(C)CCn1ccc2c(NC(=O)c3ccc4c(c3)OCCCO4)cccc2c1=O [Compound 1170]
8,0 to 25,Cc1cccc(CC(=O)Nc2cccc3c(=O)n(CCN(C)C)ccc23)c1 [Compound 1159]
9,≥ 76,"O=C(CC1CCCCCC1)Nc1cccc2c(=O)n(Cc3ccc4c(c3)OCCO4)ccc12 [Compound 1013, 2-Cycloheptyl-N-[2-(2,3-dihydro-benzo[1,4]dioxin-6-ylmethyl)-1-oxo-1,2-dihydro-isoquinolin-5-yl]-acetamide]"

# Second part, the molecule before the results:
row,Structure (SMILES),inhibition at 0.3 µM [%]
1,CC(=O)OCCn1ccc2c(NC(=O)CC3CCN(C(=O)OC(C)(C)C)CC3)cccc2c1=O [Compound 1011],0 to 25
2,COc1ccc(CC(=O)Nc2cccc3c(=O)n(CCN(C)C)ccc23)cc1 [Compound 1001],51 to 75
3,COc1c(C)cc(C(=O)Nc2cccc3c(=O)n(CC4CCOCC4)ccc23)cc1C [Compound 1112],0 to 25
4,COc1c(C)cc(C(=O)Nc2cccc3c(=O)n(CCN(C)C)ccc23)cc1C [Compound 1165],0 to 25
5,Cc1cccc(C(=O)Nc2cccc3c(=O)n(CCN4CCOCC4)ccc23)c1C [Compound 1192],26 to 50
6,Cc1ccc(CC(=O)Nc2cccc3c(=O)n(CC4CCOCC4)ccc23)cc1 [Compound 1107],0 to 25
7,Cc1ccc(C(=O)Nc2cccc3c(=O)n(CC4CCOCC4)ccc23)cc1Cl [Compound 1113],0 to 25

# Same assay, conditions: 0.3 μM compound; differentiated THP-1 cells, BzATP 250 uM; symbols + to ++++; read-out: IL-1β % Inhib. @ 0.3 μM
row,inhibition at 0.3 µM [%],Structure (SMILES)
1,0 to 25,Cn1ccc2c(NC(=O)c3cc4cc(Cl)ccc4o3)cccc2c1=O [Compound 1308]
2,26 to 50,COc1c(C)cc(C(=O)Nc2cccc3c(=O)n(CCN4CCOCC4)ccc23)cc1C [Compound 1219]
3,0 to 25,COc1ccccc1CC(=O)Nc1cccc2c(=O)n(C)ccc12 [Compound 1295]
4,≥ 76,CN(C)CCn1ccc2c(NC(=O)CC3(O)CC(C)(C)CC(C)(C)C3)cccc2c1=O [Compound 1390]
5,0 to 25,CC(C)(C)Cn1ccc2c(NC(=O)c3ccc4ccccc4c3)cccc2c1=O [Compound 1251]
6,0 to 25,CCOc1ccc(CC(=O)Nc2cccc3c(=O)n(CC(C)(C)C)ccc23)cc1 [Compound 1261]
7,0 to 25,O=C(Nc1cccc2c(=O)n(CCN3CCOCC3)ccc12)c1cccc2c1OCCO2 [Compound 1224]
8,51 to 75,COCCn1ccc2c(NC(=O)Cc3ccc(Cl)c(Cl)c3)cccc2c1=O [Compound 1392]
9,0 to 25,COCCn1ccc2c(NC(=O)Cc3ccc(OC)c(C)c3)cccc2c1=O [Compound 1337]
10,0 to 25,CC(C)(C)Cn1ccc2c(NC(=O)Cc3ccccc3F)cccc2c1=O [Compound 1252]
11,0 to 25,COCCn1ccc2c(NC(=O)c3cccc4ccccc34)cccc2c1=O [Compound 1312]
12,0 to 25,CC(=O)OCCn1ccc2c(NC(=O)CCc3ccc(S(C)(=O)=O)cc3)cccc2c1=O [Compound 1383]
13,0 to 25,Cc1cc(Cl)ccc1C(=O)Nc1cccc2c(=O)n(CCN3CCOCC3)ccc12 [Compound 1221]

# Further lines, the molecule ahead of its results:
row,Structure (SMILES),inhibition at 0.3 µM [%]
1,CCOc1ccc(C(=O)Nc2cccc3c(=O)n(C)ccc23)cc1 [Compound 1291],0 to 25
2,CN(C)CCn1ccc2c(NC(=O)Cc3ccc(Cl)c(Cl)c3)cccc2c1=O [Compound 1386],51 to 75
3,CC(=O)OCCn1ccc2c(NC(=O)Cc3ccc(S(C)(=O)=O)cc3)cccc2c1=O [Compound 1384],0 to 25
4,Cn1ccc2c(NC(=O)c3cccc4c3OCCO4)cccc2c1=O [Compound 1304],0 to 25
5,COCCn1ccc2c(NC(=O)Cc3ccc4c(c3)OCO4)cccc2c1=O [Compound 1321],0 to 25
6,Cn1ccc2c(NC(=O)[C@@]34C[C@@H]5C[C@@H](C[C@@H]3C5)C4)cccc2c1=O [Compound 1303],0 to 25
7,COCCn1ccc2c(NC(=O)Cc3ccc(OC)c(OC)c3)cccc2c1=O [Compound 1314],0 to 25

# Same assay, conditions: THP-1; read-out: IL-1β % Inhib.
row,inhibition [%],Structure (SMILES)
1,0 to 25,O=C(Cc1ccc2c(c1)OCO2)Nc1cccc2c(=O)n(CCCN3CCCC3=O)ccc12 [Compound 1527]
2,0 to 25,COc1cc(CC(=O)Nc2cccc3c(=O)n(Cc4ccc(OC(F)(F)F)cc4)ccc23)cc(OC)c1 [Compound 1589]
3,0 to 25,COc1cc(CC(=O)Nc2cccc3c(=O)n(CC4CCN(C)CC4)ccc23)cc(OC)c1 [Compound 1477]
4,0 to 25,Cc1ccc(C)c(C(=O)Nc2cccc3c(=O)n(CCCN4CCCC4=O)ccc23)c1 [Compound 1510]
5,0 to 25,CCOc1ccc(CC(=O)Nc2cccc3c(=O)n(CCCN4CCCC4=O)ccc23)cc1 [Compound 1523]
6,0 to 25,COc1ccc(C(=O)Nc2cccc3c(=O)n(CC4CCN(C)CC4)ccc23)cc1C [Compound 1490]
7,0 to 25,COc1ccc(C(=O)Nc2cccc3c(=O)n(CCCN4CCCC4=O)ccc23)cc1Cl [Compound 1500]

# More lines, now with the values behind:
row,Structure (SMILES),inhibition [%]
1,Cc1ccc(CCC(=O)Nc2cccc3c(=O)n(CCCN4CCCC4=O)ccc23)c(C)c1 [Compound 1546],0 to 25
2,O=C(Nc1cccc2c(=O)n(CCN3CCOCC3)ccc12)c1cccc2ccccc12 [Compound 1410],0 to 25
3,O=C(CCc1ccc(Cl)cc1)Nc1cccc2c(=O)n(Cc3cccnc3)ccc12 [Compound 1455],0 to 25
4,COc1ccc(C(=O)Nc2cccc3c(=O)n(C)ccc23)cc1C [Compound 1424],0 to 25
5,CN1CCC(Cn2ccc3c(NC(=O)C4C[C@@H]5CC[C@H]4C5)cccc3c2=O)CC1 (stereo partly shown) [Compound 1483],26 to 50
6,Cc1ccc(Cl)cc1C(=O)Nc1cccc2c(=O)n(CCCN3CCCC3=O)ccc12 [Compound 1541],0 to 25
7,C[C@H]1CC[C@H](C(=O)Nc2cccc3c(=O)n(Cc4ccc(OC(F)(F)F)cc4)ccc23)CC1 [Compound 1549],0 to 25
8,COCCn1ccc2c(NC(=O)Cc3ccccc3F)cccc2c1=O [Compound 1435],0 to 25
9,Cc1cccc(CC(=O)Nc2cccc3c(=O)n(Cc4ccc(OC(F)(F)F)cc4)ccc23)c1 [Compound 1582],0 to 25
10,Cc1ccc(Cl)cc1C(=O)Nc1cccc2c(=O)n(CC3CCN(C)CC3)ccc12 [Compound 1487],0 to 25
11,O=C(Cc1csc2ccccc12)Nc1cccc2c(=O)n(Cc3ccc(OC(F)(F)F)cc3)ccc12 [Compound 1597],0 to 25

# Same assay, conditions: THP-1 cells, BzATP-stimulated IL-1β release, four parameter logistic fit
row,IC50 [µM],Structure (SMILES)
1,0.93,CN(C)CCn1ccc2c(NC(=O)Cc3ccc(Cl)cc3C(F)(F)F)cccc2c1=O [Compound 1611]
2,0.112,CC(c1ccccn1)n1ccc2c(NC(=O)Cc3ccc(C(F)(F)F)c(F)c3)cccc2c1=O (stereo not shown) [Compound 1635]
3,0.0793,CN(C)CCn1ccc2c(NC(=O)CC3(O)CC(C)(C)CC(C)(C)C3)cccc2c1=O [Compound 1390]
4,0.123,COCCn1ccc2c(NC(=O)Cc3ccc(Cl)c(Cl)c3)cccc2c1=O [Compound 1392]
5,> 1,CC(=O)OCCn1ccc2c(NC(=O)CCc3ccc(S(C)(=O)=O)cc3)cccc2c1=O [Compound 1383]
6,0.000355,"O=C(CC1CCCCCC1)Nc1cccc2c(=O)n(Cc3ccc4c(c3)OCCO4)ccc12 [Compound 1013, 2-Cycloheptyl-N-[2-(2,3-dihydro-benzo[1,4]dioxin-6-ylmethyl)-1-oxo-1,2-dihydro-isoquinolin-5-yl]-acetamide]"

# The next lines start with the molecule.
row,Structure (SMILES),IC50 [µM]
1,CC(=O)OCCn1ccc2c(NC(=O)CC3CCN(C(=O)OC(C)(C)C)CC3)cccc2c1=O [Compound 1011],> 1
2,COc1ccc(CC(=O)Nc2cccc3c(=O)n(CCN(C)C)ccc23)cc1 [Compound 1001],0.24
3,CN(C)CCn1ccc2c(NC(=O)Cc3ccc(Cl)c(Cl)c3)cccc2c1=O [Compound 1386],0.238
4,CC(=O)OCCn1ccc2c(NC(=O)Cc3ccc(S(C)(=O)=O)cc3)cccc2c1=O [Compound 1384],> 1
